Results published in publication PMC8808171, “Nonselective TRPC channel inhibition and suppression of aminoglycoside-induced premature termination codon readthrough by the small molecule AC1903” (The Journal of Biological Chemistry, 2022).

Experiments:
Type in all cases: cell-based
[1] = target: T1, TRPC5:C5 (Homo sapiens, UniProt Q9UL62); assay: [Ca2+]i recordings (Fura-2), TRPC5:C5 in HEK T-REx cells; conditions: for IC50: HEK T-REx, 30 min preincubation
T1 construct: expressed in transfected cells; host or cells: HEK T-REx (tetracycline-induced)
T1 sequence (Q9UL62 1-973): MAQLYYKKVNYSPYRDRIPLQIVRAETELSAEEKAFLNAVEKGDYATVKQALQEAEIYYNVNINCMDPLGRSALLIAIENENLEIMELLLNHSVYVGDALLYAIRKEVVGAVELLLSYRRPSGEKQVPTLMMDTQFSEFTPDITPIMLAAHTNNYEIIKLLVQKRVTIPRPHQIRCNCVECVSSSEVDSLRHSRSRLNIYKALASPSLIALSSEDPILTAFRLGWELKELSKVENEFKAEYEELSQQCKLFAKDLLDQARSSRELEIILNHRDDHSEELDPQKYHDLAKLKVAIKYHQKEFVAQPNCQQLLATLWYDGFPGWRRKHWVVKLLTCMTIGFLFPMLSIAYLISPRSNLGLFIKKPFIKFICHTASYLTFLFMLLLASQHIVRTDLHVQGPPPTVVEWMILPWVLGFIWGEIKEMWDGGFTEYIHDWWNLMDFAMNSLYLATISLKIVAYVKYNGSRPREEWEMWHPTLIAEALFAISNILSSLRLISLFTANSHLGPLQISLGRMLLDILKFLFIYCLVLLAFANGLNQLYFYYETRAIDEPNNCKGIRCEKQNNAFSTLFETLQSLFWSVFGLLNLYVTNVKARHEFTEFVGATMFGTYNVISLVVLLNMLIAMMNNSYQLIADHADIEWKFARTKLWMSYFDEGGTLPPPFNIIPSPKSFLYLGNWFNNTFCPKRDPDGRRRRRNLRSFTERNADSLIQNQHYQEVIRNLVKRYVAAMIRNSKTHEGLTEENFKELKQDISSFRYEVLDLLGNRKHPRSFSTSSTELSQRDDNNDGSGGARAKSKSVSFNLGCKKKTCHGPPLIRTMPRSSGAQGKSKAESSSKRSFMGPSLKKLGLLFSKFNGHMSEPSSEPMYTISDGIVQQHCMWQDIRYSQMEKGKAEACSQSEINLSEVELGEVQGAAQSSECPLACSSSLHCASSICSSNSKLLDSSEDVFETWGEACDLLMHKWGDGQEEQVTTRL
Description: (§1) Based on the findings described above, we wondered whether AC1903—which is typically used as a TRPC5 inhibitor at concentrations of 30–100 μM in cellular assays ([29], [56])—might have limited selectivity for TRPC5 channels and whether its effect on intracellular G418 levels and PTC readthrough might be the consequence of inhibition of other or multiple targets. All well-characterized TRPC channel inhibitors reported to date modulate multiple TRP(C) channels ([34], [35], [36]). […] Because limited data for the selectivity of AC1903 are available in the public domain, we decided to profile AC1903 against a selection of calcium-permeable cation channels by intracellular calcium ([Ca^2+]i) recordings using well-characterized cell lines and TRP channel activators ([46], [57], [58]), and the Ca^2+ indicator Fura-2. In these assays, cells (HEK 293, HEK T-REx, or CHO) overexpressing the relevant ion channel protein and loaded with Fura-2 AM (a cell-permeable precursor of Fura-2) were preincubated with various concentrations of AC1903 or vehicle (DMSO) for 30 min. Then, changes in ratiometric fluorescence (from background) were recorded upon addition of the respective ion channel activator.
Figure 4 AC1903 inhibits multiple TRP channels.A and C, representative [Ca^2+]i measurements from a single 96-well plate (N = 6; mean ± SD over technical replicates) showing inhibition of EA-mediated [Ca^2+]i responses by 0.1 to 100 μM AC1903 in (Tet+) HEK T-REx cells expressing TRPC5 (A) or TRPC4 (C). B and D, concentration–response data for experiments in (A) and (C) (scatter plots showing normalized data for three independent experiments; n/N = 3/18). Responses were calculated at 250 to 295 s compared to [Ca^2+]i at baseline (0–55 s). E and G, representative [Ca^2+]i measurements from a single 96-well plate (N = 6; mean ± SD over technical replicates) showing inhibition of OAG-mediated [Ca^2+]i responses by 0.1 to 100 μM AC1903 in (Tet+) HEK T-REx cells expressing TRPC3 (E) and WT HEK 293 cells transiently expressing TRPC6 (G). F and H, concentration–response data for experiments in (E) and (G) (scatter plots showing normalized data for three independent experiments; n/N = 3/18). Responses were calculated at 90 to 110 s compared with [Ca^2+]i at baseline (0–55 s). I, representative [Ca^2+]i measurements from a single 96-well plate (N = 6; mean ± SD over technical replicates) showing inhibition of the 4α-PDD-mediated [Ca^2+]i response by 0.1 to 100 μM AC1903 in CHO cells stably expressing TRPV4. J, concentration–response data for experiments in (I) (scatter plot showing normalized data for three independent experiments; n/N = 3/18). Responses were calculated at 290 to 300 s compared with [Ca^2+]i baseline (0–55 s). EA, (-)-englerin A; TRPC, transient receptor potential canonical. […]

[2] = target: T2, TRPC3:C3 (Homo sapiens, UniProt Q13507); assay: [Ca2+]i recordings (Fura-2), TRPC3:C3 in HEK T-REx cells
T2 construct: expressed in transfected cells
Description: as §1, with “activator. […]” for “activator.”

[3] = target: T3, TRPV4:V4 (Homo sapiens, UniProt Q9HBA0); assay: [Ca2+]i recordings (Fura-2), TRPV4:V4 in CHO cells; conditions: activator 4α-PDD
T3 construct: expressed in transfected cells
Description: as §1, with “activator. […]” for “activator.”

T3 sequence (Q9HBA0 whole entry): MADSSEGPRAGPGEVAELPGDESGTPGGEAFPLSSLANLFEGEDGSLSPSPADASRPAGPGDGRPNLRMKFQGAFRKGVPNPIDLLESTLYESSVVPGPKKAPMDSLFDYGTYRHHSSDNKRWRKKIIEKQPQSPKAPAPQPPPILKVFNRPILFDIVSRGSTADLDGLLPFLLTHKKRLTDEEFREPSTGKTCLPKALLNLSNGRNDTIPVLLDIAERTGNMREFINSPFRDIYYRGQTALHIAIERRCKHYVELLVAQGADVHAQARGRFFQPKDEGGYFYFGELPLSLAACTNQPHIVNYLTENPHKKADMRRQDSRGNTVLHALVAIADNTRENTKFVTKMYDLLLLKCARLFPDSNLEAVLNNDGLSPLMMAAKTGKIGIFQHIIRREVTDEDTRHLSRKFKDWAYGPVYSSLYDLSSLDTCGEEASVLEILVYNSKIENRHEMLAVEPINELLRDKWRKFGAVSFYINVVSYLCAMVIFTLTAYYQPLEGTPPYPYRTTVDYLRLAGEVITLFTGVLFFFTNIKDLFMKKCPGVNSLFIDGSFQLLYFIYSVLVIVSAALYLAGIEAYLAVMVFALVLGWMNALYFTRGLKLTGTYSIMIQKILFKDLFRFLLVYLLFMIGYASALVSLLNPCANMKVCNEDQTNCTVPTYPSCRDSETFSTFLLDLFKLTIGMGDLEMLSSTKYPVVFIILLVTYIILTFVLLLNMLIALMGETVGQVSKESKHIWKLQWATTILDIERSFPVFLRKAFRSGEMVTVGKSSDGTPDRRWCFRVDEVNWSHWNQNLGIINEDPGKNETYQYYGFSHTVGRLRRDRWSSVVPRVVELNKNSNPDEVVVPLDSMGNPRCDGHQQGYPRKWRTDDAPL
T2 sequence (Q13507 whole entry): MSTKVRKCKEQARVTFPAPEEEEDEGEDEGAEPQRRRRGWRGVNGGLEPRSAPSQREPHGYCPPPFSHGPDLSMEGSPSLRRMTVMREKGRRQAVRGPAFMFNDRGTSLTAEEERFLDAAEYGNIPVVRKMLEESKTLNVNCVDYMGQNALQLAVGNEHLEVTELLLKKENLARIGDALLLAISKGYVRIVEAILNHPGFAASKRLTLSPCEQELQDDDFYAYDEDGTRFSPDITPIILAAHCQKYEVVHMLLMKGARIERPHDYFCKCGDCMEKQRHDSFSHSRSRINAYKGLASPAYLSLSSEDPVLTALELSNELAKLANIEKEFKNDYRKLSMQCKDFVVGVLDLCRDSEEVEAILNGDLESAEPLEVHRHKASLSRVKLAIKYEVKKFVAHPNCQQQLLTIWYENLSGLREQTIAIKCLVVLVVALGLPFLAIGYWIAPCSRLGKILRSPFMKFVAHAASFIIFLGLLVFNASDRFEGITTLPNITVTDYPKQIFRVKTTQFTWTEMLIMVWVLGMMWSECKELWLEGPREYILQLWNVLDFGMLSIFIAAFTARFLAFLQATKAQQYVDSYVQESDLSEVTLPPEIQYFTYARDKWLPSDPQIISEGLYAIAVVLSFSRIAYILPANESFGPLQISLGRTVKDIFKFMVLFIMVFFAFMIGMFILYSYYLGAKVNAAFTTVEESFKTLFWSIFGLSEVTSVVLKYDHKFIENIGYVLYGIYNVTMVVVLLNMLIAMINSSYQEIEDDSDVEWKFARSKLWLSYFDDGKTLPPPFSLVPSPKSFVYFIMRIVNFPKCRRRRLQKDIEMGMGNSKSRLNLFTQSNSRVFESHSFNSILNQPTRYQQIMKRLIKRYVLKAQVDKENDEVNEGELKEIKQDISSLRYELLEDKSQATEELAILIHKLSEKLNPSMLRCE

**Q.** What does the source list for c1ccc(Cn2c(NCc3ccco3)nc3ccccc32)cc1 [AC1903]?
**A.** IC50 ([1]; activator EA (30 nM)): 18 µM; IC50 ([1]; activator S1P (10 μM)): 3.5 µM; Hill slope ([1]; activator EA (30 nM)): -1.8; Hill slope ([1]; activator S1P (10 μM)): -1.6; IC50 ([2]; HEK T-REx, activator OAG (100 μM)): 5.2 µM; Hill slope ([2]; activator OAG): -1.4; IC50 ([3]; CHO): 19 µM; Hill slope [3]: -1.7
